Literature values, collected in US7829544B2, “Aqueous solution preparation containing aminoglycoside antibiotic and bromfenac” (Senju Pharmaceutical Co., Ltd., priority 2003, dated 2010).

Conditions: tobramycin combined with diclofenac sodium

NC[C@H]1O[C@H](O[C@H]2[C@H](O)[C@@H](O[C@H]3O[C@H](CO)[C@@H](O)[C@H](N)[C@H]3O)[C@H](N)C[C@@H]2N)[C@H](N)C[C@@H]1O [tobramycin]
behaviour of the combination solution: precipitation or suspension formation occurs
